# Experimental data: patent US7595398B2, “N-(5-membered aromatic ring)-amido anti-viral compounds” (SmithKline Beecham Corporation, priority 2005, dated 2009)
# System: HCV replicon I389luc-ubi-neo/NS3-3′/ET in ET (Huh-lucubineo-ET) cells; screening for HCV RNA dependent RNA polymerase
# Assay: Replicon Assay (luciferase, ET cell line Huh-lucubineo-ET)
# Type: cell-based
# Details: Hepatitis C virus; inhibition of replication relative to no compound control; test concentration of 10 μM according to the fitted equation; luciferase 48-72 hours
# Description: A cell line, ET (Huh-lucubineo-ET) was used for screening of compounds of the present invention for HCV RNA dependent RNA polymerase. The ET cell line was stably transfected with RNA transcripts harboring a I389luc-ubi-neo/NS3-3′/ET; replicon with firefly luciferase-ubiquitin-neomycin phosphotransferase fusion protein and EMCV-IRES driven NS3-5B polyprotein containing the cell culture adaptive mutations (E1202G; T12801; K1846T) (Krieger at al, 2001 and unpublished). The ET cells were grown in DMEM, supplemented with 10% fetal calf serum, 2 mM Glutamine, Penicillin (100 IU/mL)/Streptomycin (100 μg/mL), 1× nonessential amino acids, and 250 μg/mL G418 (“Geneticin”). They were all available through Life Technologies (Bethesda, Md.). The cells were plated at 0.5-1.0×10^4 cells/well in the 96 well plates and incubated for 24 hrs before adding nucleoside analogs. […] Luciferase activity were measured 48-72 hours later by adding a lysis buffer and the substrate (Catalog number Glo-lysis buffer E2661 and Bright-Glo luciferase system E2620 Promega, Madison, Wis.). Cells should not be too confluent during the assay. Percent inhibition of replication was plotted relative to no compound control. Under the same condition, cytotoxicity of the compounds was determined using cell proliferation reagent, WST-1(Roche, Germany). The compounds showing antiviral activities, but no significant cytotoxicities were chosen to determine IC50 and TC50. For these determinations, 10 concentrations of each compound were used. Concentrations for test compounds typically span a range of 500 fold. IC50 and TC50 values were calculated by fitting % inhibition at each concentration (I) to the following equation: % inhibition=100%/[1+10^(log IC50−log (I))*b] where b is Hill's coefficient.
row,SMILES,inhibition at 10 µM [%]
1,"COc1c(F)c(F)c(-c2csc(NC(=O)[C@@H]3CCCN3C(=O)OCc3ccccc3)n2)c(F)c1F [Compound 5020, 2-[4-(2,3,5,6-Tetrafluoro-4-methoxy-phenyl)-thiazol-2-ylcarbamoyl]-pyrrolidine-1-carboxylic acid benzyl ester]",58.2
2,"Cc1ccc(-c2csc(NC(=O)[C@@H]3CCCN3C(=O)OCc3ccccc3)n2)c(C)c1 [Compound 5021, 2-[4-(2,4-Dimethyl-phenyl)-thiazol-2-ylcarbamoyl]-pyrrolidine-1-carboxylic acid benzyl ester]",97
3,"Cc1ccc(-c2csc(NC(=O)[C@@H]3CCCN3C(=O)OCc3ccccc3)n2)cc1 [Compound 5022, 2-(4-p-Tolyl-thiazol-2-ylcarbamoyl)-pyrrolidine-1-carboxylic acid benzyl ester]",56
4,"O=C(Nc1nc(-c2ccc(F)cc2F)cs1)[C@@H]1CCCN1C(=O)OCc1ccccc1 [Compound 5023, 2-[4-(2,4-Difluoro-phenyl)-thiazol-2-ylcarbamoyl]-pyrrolidine-1-carboxylic acid benzyl ester]",76.5
5,"O=C(Nc1nc(-c2ccc(C3CCCCC3)cc2)cs1)[C@@H]1CCCN1C(=O)OCc1ccccc1 [Compound 5024, 2-[4-(4-Cyclohexyl-phenyl)-thiazol-2-ylcarbamoyl]-pyrrolidine-1-carboxylic acid benzyl ester]",11
6,"Cc1ccc(Cc2cnc(NC(=O)[C@@H]3CCCN3C(=O)OCc3ccccc3)s2)cc1Cl [Compound 5025, 2-[5-(3-Chloro-4-methyl-benzyl)-thiazol-2-ylcarbamoyl]-pyrrolidine-1-carboxylic acid benzyl ester]",2.86
7,"O=C(Nc1cccc(-c2csc(NC(=O)C3CCCN3C(=O)OCc3ccccc3)n2)c1)C1CCCC1 (stereo not drawn) [Compound 5026, 2-{4-[3-(Cyclopentanecarbonyl-amino)-phenyl]-thiazol-2-ylcarbamoyl}-pyrrolidine-1-carboxylic acid benzyl ester]",100
8,"O=C(Nc1nc(-c2ccc(NS(=O)(=O)c3ccccc3)cc2)cs1)C1CCCN1C(=O)OCc1ccccc1 (stereo not drawn) [Compound 5027, 2-[4-(4-Benzenesulfonylamino-phenyl)-thiazol-2-ylcarbamoyl]-pyrrolidine-1-carboxylic acid benzyl ester]",99.7
9,"O=C(Nc1nc(C2(c3ccccc3)CCCC2)cs1)[C@@H]1CCCN1C(=O)OCc1ccccc1 [Compound 5028, 2-[4-(1-Phenyl-cyclopentyl)-thiazol-2-ylcarbamoyl]-pyrrolidine-1-carboxylic acid benzyl ester]",98.9
10,"O=C(Nc1ncc(Cc2cccc(Cl)c2)s1)[C@@H]1CCCN1C(=O)OCc1ccccc1 [Compound 5029, 2-[5-(3-Chloro-benzyl)-thiazol-2-ylcarbamoyl]-pyrrolidine-1-carboxylic acid benzyl ester]",0.52
11,"O=C(Nc1ncc(Cc2ccc(Cl)cc2Cl)s1)[C@@H]1CCCN1C(=O)OCc1ccccc1 [Compound 5031, 2-[5-(2,4-Dichloro-benzyl)-thiazol-2-ylcarbamoyl]-pyrrolidine-1-carboxylic acid benzyl ester]",2.85
12,"Cc1sc2nc(SCc3csc(NC(=O)[C@@H]4CCCN4C(=O)OCc4ccccc4)n3)n(C)c(=O)c2c1C [Compound 5032, 2-[4-(3,5,6-Trimethyl-4-oxo-3,4-dihydro-thieno[2,3-d]pyrimidin-2-ylsulfanylmethyl)-thiazol-2-ylcarbamoyl]-pyrrolidine-1-carboxylic acid benzyl ester]",38.6
13,"Cc1ccc(S(=O)(=O)Cc2csc(NC(=O)[C@@H]3CCCN3C(=O)OCc3ccccc3)n2)cc1 [Compound 5033, 2-[4-(Toluene-4-sulfonylmethyl)-thiazol-2-ylcarbamoyl]-pyrrolidine-1-carboxylic acid benzyl ester]",2.51
14,"O=C(Nc1nc(-c2ccc(Cl)c(Cl)c2)cs1)[C@@H]1CCCN1C(=O)OCc1ccccc1 [Compound 5034, 2-[4-(3,4-Dichloro-phenyl)-thiazol-2-ylcarbamoyl]-pyrrolidine-1-carboxylic acid benzyl ester]",100
15,"O=C(Nc1nc2cc3ccccc3cc2s1)[C@@H]1CCCN1C(=O)OCc1ccccc1 [Compound 5035, 2-(Naphtho[2,3-d]thiazol-2-ylcarbamoyl)-pyrrolidine-1-carboxylic acid benzyl ester]",100
16,"O=C(Nc1ccc(-c2csc(NC(=O)[C@@H]3CCCN3C(=O)OCc3ccccc3)n2)cc1)c1ccc(Cl)cc1 [Compound 5036, 2-{4-[4-(4-Chloro-benzoylamino)-phenyl]-thiazol-2-ylcarbamoyl}-pyrrolidine-1-carboxylic acid benzyl ester]",100
17,"O=C(Nc1ccc(-c2csc(NC(=O)C3CCCN3C(=O)OCc3ccccc3)n2)cc1)c1ccccc1 (stereo not drawn) [Compound 5037, 2-[4-(4-Benzoylamino-phenyl)-thiazol-2-ylcarbamoyl]-pyrrolidine-1-carboxylic acid benzyl ester]",100
18,"O=C(Nc1cccc(-c2csc(NC(=O)[C@@H]3CCCN3C(=O)OCc3ccccc3)n2)c1)c1ccc(Cl)cc1 [Compound 5038, 2-{4-[3-(4-Chloro-benzoylamino)-phenyl]-thiazol-2-ylcarbamoyl}-pyrrolidine-1-carboxylic acid benzyl ester]",100
19,"O=C(Nc1cccc(-c2csc(NC(=O)C3CCCN3C(=O)OCc3ccccc3)n2)c1)C1CC1 (stereo not drawn) [Compound 5039, 2-{4-[3-(Cyclopropanecarbonyl-amino)-phenyl]-thiazol-2-ylcarbamoyl}-pyrrolidine-1-carboxylic acid benzyl ester]",99.6
20,"Cc1ccc(Cc2cnc(NC(=O)[C@@H]3CCCN3C(=O)OCc3ccccc3)s2)cc1 [Compound 5040, 2-[5-(4-Methyl-benzyl)-thiazol-2-ylcarbamoyl]-pyrrolidine-1-carboxylic acid benzyl ester]",22.5
21,"O=C(Nc1nc(-c2ccc([N+](=O)[O-])cc2)cs1)[C@@H]1CCCN1C(=O)OCc1ccccc1 [Compound 5041, 2-[4-(4-Nitro-phenyl)-thiazol-2-ylcarbamoyl]-pyrrolidine-1-carboxylic acid benzyl ester]",76
22,"Cc1ccc(C)c(-c2cnc(NC(=O)[C@@H]3CCCN3C(=O)OCc3ccccc3)s2)c1 [Compound 5042, 2-[5-(2,5-Dimethyl-phenyl)-thiazol-2-ylcarbamoyl]-pyrrolidine-1-carboxylic acid benzyl ester]",90.3
23,"COc1ccc2cc(-c3csc(NC(=O)[C@@H]4CCCN4C(=O)OCc4ccccc4)n3)c(=O)oc2c1 [Compound 5043, 2-[4-(7-Methoxy-2-oxo-2H-chromen-3-yl)-thiazol-2-ylcarbamoyl]-pyrrolidine-1-carboxylic acid benzyl ester]",3.61
24,"O=C1CC(c2csc(NC(=O)[C@@H]3CCCN3C(=O)OCc3ccccc3)n2)C2(CCCCC2)O1 (stereo partly drawn) [Compound 5044, 2-[4-(2-Oxo-1-oxa-spiro[4.5]dec-4-yl)-thiazol-2-ylcarbamoyl]-pyrrolidine-1-carboxylic acid benzyl ester]",16.9
25,"O=C(Nc1nc(COc2ccc(Cl)cc2)cs1)[C@@H]1CCCN1C(=O)OCc1ccccc1 [Compound 5045, 2-[4-(4-Chloro-phenoxymethyl)-thiazol-2-ylcarbamoyl]-pyrrolidine-1-carboxylic acid benzyl ester]",6.85
26,"O=C(Nc1ncc(Cc2cccc([N+](=O)[O-])c2)s1)[C@@H]1CCCN1C(=O)OCc1ccccc1 [Compound 5047, 2-[5-(3-Nitrobenzyl)-thiazol-2-ylcarbamoyl]-pyrrolidine-1-carboxylic acid benzyl ester]",37.7
27,"CC(=O)Nc1ccc(-c2csc(NC(=O)[C@@H]3CCCN3C(=O)OCc3ccccc3)n2)cc1 [Compound 5048, 2-[4-(4-Acetylamino-phenyl)-thiazol-2-ylcarbamoyl]-pyrrolidine-1-carboxylic acid benzyl ester]",100
28,"CNc1ccc(-c2csc(NC(=O)C3CCCN3C(=O)OCc3ccccc3)n2)cc1 (stereo not drawn) [Compound 5049, 2-[4-(4-Methylamino-phenyl)-thiazol-2-ylcarbamoyl]-pyrrolidine-1-carboxylic acid benzyl ester]",95.6
29,"Nc1ccc(-c2csc(NC(=O)C3CCCN3C(=O)OCc3ccccc3)n2)cc1 (stereo not drawn) [Compound 5050, 2-[4-(4-Amino-phenyl)-thiazol-2-ylcarbamoyl]-pyrrolidine-1-carboxylic acid benzyl ester]",99.8
30,"O=C(Nc1nc(C2CCOCC2)cs1)[C@@H]1CCCN1C(=O)OCc1ccccc1 [Compound 5051, 2-[4-(Tetrahydro-pyran-4-yl)-thiazol-2-ylcarbamoyl]-pyrrolidine-1-carboxylic acid benzyl ester]",3.42
